From EP1826280A2 (priority 1992, dated 1994)

Test system: vascular smooth muscle cells
Assay: 24 hour 3H-leucine protein inhibition and 3H-thymidine DNA synthesis inhibition assays
Type: cell-based
Settings: 24 hour exposure; for inhibition of DNA synthesis compared with protein synthesis: in the presence of 5% FBS
Description: The ability of various therapeutic agents to inhibit DNA synthesis and protein synthesis in vascular smooth muscle cells was tested. ^3H-leucine and ^3H-thymidine uptake and cytotoxicity assays were conducted in accordance with the following protocols.
^3H-leucine uptake: Vascular smooth muscle cells at 40,000 cells/ml were seeded in sterile 24 well plates at 1ml/well. The plates were incubated overnight at 37°C, 5% CO2, 95% air in a humidified atmosphere (saturation). Log dilutions of the therapeutic agent of interest were incubated with the vascular smooth muscle cells for 5 minutes or 24 hours. Samples of the therapeutic agents were diluted in DMEM:F-12 media (Whittaker Bioproducts, Walkersville, Maryland) with 5% fetal bovine serum (GBS, Gibco) and 5% Serum Plus® (JRH Biologicals). Following therapeutic agent incubation, the solution was aspirated, and 1ml/well of 0.5 microcurie/ml ^3H-leucine in leucine free DMEM (Dulbecco's Modified Eagle's Medium) with 5% Serum Plus® was added. The plates were re-incubated overnight at 37°C, 5% CO2 in a humidified atmosphere. The cells were visually graded using an inverted microscope using a scoring scale to determine viability and cell number. The 1 to 3 grade is based upon percent of cell viability and number compared to control wells, with 3=100%, 2=70%-100% and 1=0%-70%. A record of this scoring assisted in determining the immediate cytotoxic effect of the therapeutic agents. The media was then aspirated, and the cells were washed twice with cold 5% TCA. 400 microliters of 0.2M KaOH was added per well, and the plates were incubated for two hours at room temperature on a rotating platform. 200 microliters per well of the cell solution was transferred into plastic scintillation vials (Bio-Rad Laboratories), and 4 milliliters of Bio-Safe® II liquid scintillation fluid was added prior to vortexing. Vials were counted on a Beckman LS2600 Liquid scintillation Counter interfaced with Beckman "Data Capture" software for conversion to a Lotus 1-2-3® file and analysis using Lotus 1-2-3®.
^3H-thymidine uptake: Vascular smooth muscle cells were incubated in complete media with 5% FBS (Gibco) overnight at 37°C in a humidified, 5% CO2 environment in sterile 24 well plates. The media was aspirated from the wells and serum free media supplemented with growth factors (DMEM: F-12 basal media supplemented with growth factor cocktail catalog number I1884 which contains insulin (5 micrograms/ml), transferrin (5 micrograms/ml) and sodium selenite (5 nanograms/ml) available from Sigma Chemical, St. Louis, Missouri) was added. Cells were incubated in this media for 24 hours. For a 5 minute therapeutic agent exposure, log dilutions of the therapeutic agent were incubated with the cells in complete media. After 5 minutes and media aspiration, 1 ml/well of 1.0 microcurie/ml ^3H-thymidine dispersed in complete media was added. The 24 hour exposure involved incubation of the cells with 1 ml/well of 1.0 microcurie/ml of ^3H-thymidine dispersed in complete media and log dilutions of the therapeutic agent being tested. In both exposure trials, the cells were then incubated overnight at 37°C in a humidified, 5% CO2 environment. The cells were visually scored for viability and cell number. […] Vials were counted on a Beckman LS2800 Liquid Scintillation counter interfaced with Beckman "Data Capture" software for conversion to a Lotus 1-2-3® file and analysis using Lotus 1-2-3®.

Row | Structure (SMILES) | therapeutic range (area under the curve of 3H-leucine assay greater than that of 3H-thymidine assay) | inhibition of DNA synthesis compared with protein synthesis
1 | CN[C@@H]1C[C@H]2O[C@@](C)([C@@H]1OC)n1c3ccccc3c3c4c(c5c6ccccc6n2c5c31)C(=O)NC4 [staurosporin] | showed an available therapeutic range | –
2 | O=[N+]([O-])OCC(CO[N+](=O)[O-])O[N+](=O)[O-] [nitroglycerin] | showed an available therapeutic range | to a greater extent than they inhibited protein synthesis
3 | Cc1ccc(C(=O)Nc2ccc(S(=O)(=O)O)c3cc(S(=O)(=O)O)cc(S(=O)(=O)O)c23)cc1NC(=O)c1cccc(NC(=O)Nc2cccc(C(=O)Nc3cc(C(=O)Nc4ccc(S(=O)(=O)O)c5cc(S(=O)(=O)O)cc(S(=O)(=O)O)c45)ccc3C)c2)c1 [suramin] | showed an available therapeutic range | to a greater extent than they inhibited protein synthesis
